Laboratory results taken from PMC11204762, “Purification and Structural Analyses of Sulfated Polysaccharides from Low-Value Sea Cucumber Stichopus naso and Anticoagulant Activities of Its Oligosaccharides” (Marine Drugs, 2024).
“And” between values parts separate entries of the source, which are not always exact repeats. Equal values may be shown once.

Key:
[1] = tested on: intrinsic coagulation pathway (APTT of human plasma); assay: Anticoagulant activity: APTT with a coagulometer, APTT reagent and standard human plasma; type: biochemical; conditions: for 2APTT: concentration required to double the APTT of human plasma (EC2.0×): standard human plasma, EC2.0× ± SD (n = 2)
Description: The anticoagulant activities of natural SnFG and its oligosaccharides 3, 4, 5, and 6 were assessed using a coagulometer (TECO, MC-2000) using APTT reagents and standard human plasma, according to a previous method. Briefly, 5 μL of a series of concentrations of the samples was added to a standard preheated to 37 °C and another 45 μL of standard human plasma was added for co-incubation at 37 °C for 2 min, followed by the addition of 50 μL of APTT reagent for incubation for another 3 min. Subsequently, 50 μL of CaCl2 (0.02 M) was added and the timer was started.
(§1) Activities of natural HfFG (FG from H. fuscopunctata) and its oligosaccharides oHG-8, oHG-11, oHG-14, and oHG-17 were simultaneously detected for comparison.

[2] = biological target: T1, intrinsic factor Xase complex (iXase, VIIIa-IXa-PL-Ca2+ complex) (Homo sapiens, UniProt P00740); assay: Inhibition of iXase: chromogenic substrate assay, BIOPHEN FVIII:C kit and recombinant human factor VIII; type: biochemical; conditions: IC50 ± SE (n = 2)
T1 construct: intrinsic factor Xase complexes (iXase, VIIIa-IXa-PL-Ca^2+ complex); purchased BIOPHEN FVIII:C (assay kit)
Description: Inhibition of iXase was assessed using the chromogenic substrate assay and the FVIII assay kit BIOPHEN FVIII:C: containing R1 (FX), R2 (Activation Reagent), and R3 (SXa-11) and recombinant human factor VIII (FVIII). A total of 30 μL of each sample was added to the 96-well plate, followed by 30 μL of R2 and 30 μL of FVIII solution (2 IU/mL), and the place was placed in the microplate reader. The plates were mixed and incubated at 37 °C for 2 min. Then, 30 μL of R1 was added to mix and incubated at 37 °C for 1 min, and finally, 30 μL of R3 was added. The absorbance value at 405 nm (OD405nm) was recorded via a microplate reader, and continuous reading was performed for 2min at 15 s intervals. The experiments were performed in duplicate. The average value of OD405nm was linearly fitted to time, and the slope (the rate of change in absorbance value ΔOD405nm/min) corresponded to the iXase activity.
as §1

T1 sequence (P00740 47-191 limits assumed): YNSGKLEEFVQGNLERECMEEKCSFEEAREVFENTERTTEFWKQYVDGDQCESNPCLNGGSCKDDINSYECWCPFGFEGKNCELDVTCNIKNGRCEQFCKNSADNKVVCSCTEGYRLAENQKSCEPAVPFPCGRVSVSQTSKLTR
T1 sequence (P00740 227-461 limits assumed): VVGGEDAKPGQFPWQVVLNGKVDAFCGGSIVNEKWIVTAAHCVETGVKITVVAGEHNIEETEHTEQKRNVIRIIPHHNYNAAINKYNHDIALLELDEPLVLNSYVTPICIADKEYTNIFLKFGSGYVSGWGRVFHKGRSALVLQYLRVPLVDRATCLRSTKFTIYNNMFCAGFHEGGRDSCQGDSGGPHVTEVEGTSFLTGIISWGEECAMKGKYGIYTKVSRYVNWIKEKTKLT

Anti-iXase: concentration required to inhibit 50% Xase activity (IC50) [2]	Substance	fold stronger than oHG-8 in APTT prolongation (EC2.0×) ([1]; EC2.0× 20.94 vs. 32.35 μg/mL)	2APTT: concentration required to double the APTT of human plasma (EC2.0×) [1]
0.335 ± 0.02473 mg/L	L-Fuc2S4S-α(1,3)-L-Δ^4,5HexA-α(1,3)-D-GalNAc4S6S-β(1,4)-[L-Fuc2S4S-α(1,3)]-D-GlcA-β(1,3)-D-GalNAc4S6S-β(1,4)-[L-Fuc2S4S-α(1,3)]-D-GlcA-ol [compound 3]	about 1.5 fold	20.94 µg/mL and 20.94 ± 0.27 µg/mL
0.08444 ± 0.00799 mg/L	enoxaparin [LMWH, reference compound]		7.46 ± 0.02 µg/mL
